Data reported in the NIST ThermoML archive (doi:10.1016/j.tca.2016.04.007).
± gives the expanded uncertainty stated by the source.

Legend:
[1] = Crystal; DTA
[2] = Molar enthalpy of transition or fusion; details: Crystal; DSC

SMILES: CCCCCCCCCCCCCCCCBr [1-bromohexadecane]
- Normal melting temperature [1]: 14.20 ± 3 °C
- Molar enthalpy of transition or fusion [2]: 10.9 ± 0.287 kcal/mol

SMILES: CCCCCCCCCCCCCCCCCCBr [1-bromooctadecane]
- Normal melting temperature [1]: 23.50 ± 3 °C
- Molar enthalpy of transition or fusion [2]: 12.9 ± 0.311 kcal/mol
